In patent US8372808B2, “Suppression of glial fibrillary acidic protein” (Wisconsin Alumni Research Foundation, priority 2008, dated 2013):
Where two headings read alike, the source gives them in different places.

Assays:
172.9 cells = test: cell viability (CellTiter-Glo) / MTDcc in 172.9 cells
Procedure: Criterion for acceptable viability was >70% survival.
Cell viability was determined as follows. After exposure to each compound (duplicate wells per compound), 50 μl of CellTitier-Glo Luminescent Cell Viability Assay reagent (G7571, Promega) was added to the 100 μl of media present in each well, and the luminescent signal (reflecting intracellular ATP level) was detected with either a Victor 3-V plate reader (Perkin Elmer) or GloRunner Microplate Luminometer (Turner Biosystems). Cell viability was expressed as a percent of non-treated control cells.
A dose-response curve was created for each compound (0.1, 0.5, 1, 5, 10, 15, 20 μM) using 48 hr exposures. The MTDcc (“maximum tolerated dose—cell culture”) indicates the highest concentration that retained at least 70% cell viability. Each compound and concentration was analyzed in quadruplicate wells. EGCDG: epigallocatechin 3,5-digallate; NPPB: 5-nitro-2-phenylproplyaminobenzoic acid. As used herein, MTDcc refers to the MTD as determined by this assay under the above conditions.

mGFAP protein = test: cell-based GFAP protein level assay (cell-based ELISA) in 172.9 cells; parameters: species or system mouse; conditions: for % GFAP reductions, mGFAP protein via ELISA: tertiary screen, 48 hr exposure, at the MTDcc
[1] = system: 2.2 kb human GFAP promoter; test: hGFAP promoter luciferase activity assay in 172.9 cells (primary astrocytes from dual luciferase transgenic mice); format: cell-based; conditions: for reductions in luciferase activity: quaternary screen, 10 days of exposure, 0-20 μM; for % GFAP reductions, luciferace expression from hGFAP promoter: tertiary screen, 48 hr exposure, at the MTDcc
Procedure: Cell-based assays were performed as four different screens using enriched cortical primary astrocyte cultures developed from transgenic mice expressing both firefly and Renilla luciferase reporter genes were generated. Briefly, the'firefly luciferase was placed under the control of a 2.2 kb human GFAP promoter to monitor GFAP transcription, and the Renilla luciferase was placed under the control of a 0.5 kb human GAPDH (glyceraldehyde 3-phosphate dehydrogenase) promoter to monitor transcription of a housekeeping gene for signal normalization. See section B, below for more detail regarding the development of transgenic mouse strains. Cells used in the following examples (e.g., the cortical primary astrocyte cells termed “172.9 cells,” described below) were developed from the transgenic mice described in section B.
Briefly, the cortices from individual pups were freed of meninges and placed into DMEM (Gibco) without serum, mechanically disassociated into single cells, suspended in medium containing DMEM supplemented with 10% fetal bovine serum (FBS; Hyclone), 100 U/ml penicillin, 100 μg/ml streptomycin (Gibco), seeded into T25 flasks (one brain per flask), and maintained in a humidified 5% CO2 atmosphere at 37° C. […] Medium was changed every 3 days. At 14-16 days in vitro (DIV), the flasks were shaken overnight at 200 rpm to remove oligodendrocytes and microglia. […] The cells were then suspended in DMEM with 10% FBS and plated (“passage 2”) on either 35 mm dishes, […], or 96-well plates (Corning) as needed. Cells were grown for varying days in vitro (DIV) at passage 2 and then used for various experiments. Tissue culture dishes and plates were pre-coated with 100 μg/ml poly-L-lysine for 1 h in a humidified 5% CO2 atmosphere at 37° C., and then allowed to air dry. […] Cell density was measured with the Vi-CELL cell counter (Beckman Coulter) or hemocytometer by the trypan-blue exclusion method. For simplicity, cells are referred to as “172.9 cells.”
Briefly, 172.9 cells were plated on poly-L coated white 96-well plates at a density of 5000 cells per well, in 100 μl DMEM with 10% FBS. At twenty-four hours, cells were exposed to the different compounds at a final concentration of 10 μM (diluted from a 50 mM stock) prepared in new medium (DMEM with 10% FBS). […] After exposure to compounds, luciferase activity in the primary and secondary screenings was determined by adding 30 μl of Bright-Glo™ reagent (Promega) to the 100 μl of media and cells of each well in the white 96-well plates with the Biomek® FX liquid handler (Beckman Coulter). After incubation for 1 minute at room temperature, signals were measured with the Safire 2 plate reader using Magellan™ software (Tecan). Other specific methods and equipment are known in the art and can be used to measure luciferase expression levels. This assay method is termed the “hGFAP promoter luciferase activity assay.” A reduction in luciferase expression as determined by this assay is termed “hGFAP promoter luciferase reduction.” For some assays that were aimed at confirming results of the initial screens, the same amount of Bright-Glo™ reagent was applied to each well in 96-well plates and signals were detected with the GloRunner™ Microplate Luminometer (Turner Biosystems) using the Dual-Glo® luciferase assay according to the manufacturer's recommendations (E1910, Promega).
In the secondary screen, cells were plated in a 96-well plate as described above for the primary screen.
Some compounds were unavailable outside of the library collections, and could not be further tested.
Each compound and concentration was analyzed in quadruplicate wells.
(§1) Compounds were tested at eight different concentrations ranging from 0-20 μM. In addition, GFAP protein levels were measured using a sandwich ELISA, which has greater sensitivity and is more accurate than the cell-based ELISA used in the primary screens.

GFAP protein = test: sandwich ELISA for GFAP protein in 172.9 cells, quaternary screen; format: cell-based, mouse; conditions: 10 days of exposure, 0-20 μM
Procedure: as §1
The extracts were harvested from each well and the total GFAP content of each well was measured by a sandwich ELISA as described below. Briefly, separate microtiter plates were coated with SMI-26 anti-GFAP mouse monoclonal antibody cocktail (1:1000, Covance, diluted in PBS) overnight at 4° C., rinsed 3 times in PBS, and then blocked with Blotto (5% nonfat milk/PBS) for 2 h at RT. Samples from the astrocyte cell lysate (20 μl per well) were loaded onto the plates and brought up to 100 μl with 0.5% Triton X-100/PBS (a buffer used for subsequent antibody incubations and rinses), and incubated with a rabbit polyclonal anti-GFAP antibody (1:5000, DAKO) overnight at 4° C. The plates were rinsed three times and then incubated with HRP-conjugated goat anti-rabbit IgG (1:30,000, Sigma) for 2 h at RT. After three final rinses, peroxidase activity was detected using the Super Signal Femto maximum Sensitivity Substrate (Pierce) with a GloRunner microplate luminometer (Turner Biosystems). The GFAP content in the samples was determined from a standard curve generated using serial dilutions of purified GFAP (Research Diagnostics).

[2] = secondary screen, 10 μM, 48 hours

Row | SMILES | MTDcc (172.9 cells) [µM] | cell viability (172.9 cells) | suppression in the protein assay (mGFAP protein; [2]) | % GFAP reductions, mGFAP protein via ELISA (mGFAP protein) [%] | reductions in luciferase activity [1] | suppression in the promoter assay [1, 2] | % GFAP reductions, luciferace expression from hGFAP promoter [1] [%] | reductions in GFAP protein levels (GFAP protein) | MTDcc (172.9 cells; mouse, 48 h) [µM]
1 | O=C(Oc1cc(O)cc2c1C[C@@H](OC(=O)c1cc(O)c(O)c(O)c1)[C@@H](c1cc(O)c(O)c(O)c1)O2)c1cc(O)c(O)c(O)c1 [EGCDG, epigallocatechin 3,5-digallate] | 17.5 | acceptable cell viability | significant suppression | 4.5 | consistent reductions | significant suppression | 57 | consistent reductions | 
2 | CN(C)CCC=C1c2ccccc2CCc2ccccc21 [amitriptyline] |  | acceptable cell viability |  | 12.2 | consistent reductions |  | 63 | consistent reductions | >20
